We go through ten compounds from US7332476B2, “Pyridyl substituted ketolide antibiotics” (Novartis AG, priority 2003, dated 2008).

Common to all, as to experiment: MIC, broth microdilution (NCCLS)
Holding throughout (assay type): cell-based

Test [1] deals with Streptococcus pyogenes Stpy_8668. How it is done:
(§1) Strains. The bacterial isolates listed in Table 4 were cultivated from −70° C. frozen stocks by two consecutive overnight passages (P1, P2) at 35° C. on 5% blood agar (Remel, Lenexa, Kans.). Chocolate agar (Remel) is used for Haemophilus influenzae. H. influenzae and Streptococcus pneumoniae are incubated in 5-10% CO2
(§2) Drug Stock Preparation. To determine the amount of solvent to be used to give the desired final concentration, the formula “weight obtained in mg/final concentration in mg/ml” will be used. It will give the amount of solvent in ml needed to be added to give the desired concentration. For example, if 2.5 mg/ml is the desired concentration and the weight of compound is 13.7 mg, then the amount of solvent to be added is […]. Methanol is used as the solvent to dissolve the test compounds. Further dilution of stock is done in sterile, deionized water. Drug stocks are kept frozen at −70° C., protected from light.
(§3) Susceptibility Testing. MICs are determined by the broth microdilution method in accordance with the NCCLS guidelines. In brief, organism suspensions are adjusted to a 0.5 McFarland standard to yield a final inoculum between 3×10^5 and 7×10^5 CFU/ml. Drug dilutions and inocula are made in sterile, cation adjusted Mueller-Hinton Broth (CAMHB) (Remel) for all but S. pneumoniae [CAMHB with 2-5% lysed horse blood (Remel)] and H. influenzae [Haemophilus Test Medium (Remel)]. An inoculum volume of 100 μl is added to wells containing 100 μl of broth with 2-fold serial dilutions of drug. All inoculated microdilution trays are incubated in ambient air at 35° C. for 18-24 hours, except for S. pneumoniae, and H. influenzae (both at 5-10% CO2).
(§4) Following appropriate incubation, the MIC is determined and the MIC is defined as the lowest concentration of the drug that prevented visible growth.
(§5) Strains. The bacterial isolates listed in Table 8 were cultivated from −70° C. frozen stocks by two consecutive overnight passages (P1, P2) at 35° C. on 5% blood agar (Remel, Lenexa, Kans.). Chocolate agar (Remel) is used for Haemophilus influenzae. H. influenzae and Streptococcus pneumoniae are incubated in 5-10% CO2
(§6) Following appropriate incubation, the MIC is determined and the MIC is defined as the lowest concentration of the drug that prevented visible growth. […] Antibacterial activity of representative compounds of the invention were compared against telitromycin.

For test [2], the system named is Streptococcus pneumoniae Stpn_297-749. How it is done:
as §1, §2, §3, §4, §5, §6

In test [3] the test system is Streptococcus pneumoniae Stpn_49619. How it is done: as §1, §2, §3, §4, §5, §6
The subject of test [4] is Streptococcus pneumoniae Stpn_280-962. How it is done: as §1, §2, §3, §4, §5, §6
Setting [5] is: Table 7, Strain ID G (Table 6): S. pneumoniae Stpn_297-749.
The mark [6] stands for this setting: Table 7, Strain ID F (Table 6): S. pneumoniae Stpn_49619.
[7] abbreviates: Table 7, Strain ID H (Table 6): S. pneumoniae Stpn_280-962.
Setting [8] is: Table 7, Strain ID E (Table 6): S. pyogenes Stpy_8668.

For `CC[C@H]1OC(=O)[C@H](C)[C@@H](O[C@H]2C[C@@](C)(OC)[C@@H](O)[C@H](C)O2)[C@H](C)[C@@H](O[C@@H]2O[C@H](C)C[C@H](N(C)C)[C@H]2O)[C@](C)(OC)C[C@@H](C)C(=O)[C@H](C)[C@@H](O)[C@]1(C)O` [Clar., clarithromycin, reference compound], the MIC entry in test [1] (Table 5, Strain ID D (Table 4): S. pyogenes Stpy_8668) is “=0.05”; in test [2] (Table 5, Strain ID F (Table 4): S. pneumoniae Stpn_297-749 Pen R), “=0.05”; in test [3] (Table 5, Strain ID E (Table 4): S. pneumoniae Stpn_49619) it was “=0.05”; in test [4] (Table 5, Strain ID G (Table 4): S. pneumoniae Stpn_280-962 Pen S), “=0.05”.
On to `CC[C@H]1OC(=O)[C@@](C)(F)C(=O)[C@H](C)[C@@H](OC2O[C@H](C)C[C@H](N(C)C)[C@H]2O)[C@@](C)(OC)C[C@@H](C)C(=O)[C@H](C)[C@H]2N(CCCCc3ccnc4ccccc34)C(=O)O[C@]12CC` (stereo partly drawn) [Example 17, (3aS,4R,7S,9R,10R,11S,13R,15R,15aR)-3a,4-diethyl-7-fluoro-11-methoxy-7,9,11,13,15-pentamethyl-2,6,8,14-tetraoxo-1-(4-quinolin-4-ylbutyl)tetradecahydro-2H-oxacyclotetradecino[4,3-d][1,3]oxazol-10-yl-3,4,6-trideoxy-3-(dimethylamino)-D-xylo-hexopyranoside], for which the MIC result in test [2] (setting [5]), in test [3] (setting [6]) and in test [4] (setting [7]) was “=0.05” throughout.
Turning to `CC[C@H]1OC(=O)[C@@](C)(F)C(=O)[C@H](C)[C@@H](OC2O[C@H](C)C[C@H](N(C)C)[C@H]2O)[C@@](C)(OC)C[C@@H](C)C(=O)[C@H](C)[C@H]2N(CCCCc3ccc4ccccc4n3)C(=O)O[C@]12CC` (stereo partly drawn) [Example 19, (3aS,4R,7S,9R,10R,11S,13R,15R,15aR)-3a,4-diethyl-7-fluoro-11-methoxy-7,9,11,13,15-pentamethyl-2,6,8,14-tetraoxo-1-(4-quinolin-2-ylbutyl)tetradecahydro-2H-oxacyclotetradecino[4,3-d][1,3]oxazol-10-yl-3,4,6-trideoxy-3-(dimethylamino)-D-xylo-hexopyranoside], the MIC entry in test [2] (setting [5]), in test [3] (setting [6]) and in test [4] (setting [7]) was “=0.05” in each case.
As for `CC[C@H]1OC(=O)[C@H](C)C(=O)[C@H](C)[C@@H](OC2O[C@H](C)C[C@H](N(C)C)[C@H]2O)[C@@](C)(OC)C[C@@H](C)C(=O)[C@H](C)[C@H]2N(CCCCn3cnc(-c4cccnc4)c3C)C(=O)O[C@]12CC` (stereo partly drawn) [Example 21, (3aS,4R,7R,9R,10R,11S,13R,15R,15aR)-3a,4-DIETHYL-11-METHOXY-7,9,11,13,15-PENTAMETHYL-1-[4-(5-METHYL-4-PYRIDIN-3-YL-1H-IMIDAZOL-1-YL)BUTYL]-2,6,8,14-TETRAOXOTETRADECAHYDRO-2H-OXACYCLOTETRADECINO[4,3-D][1,3]OXAZOL-10-YL-3,4,6-TRIDEOXY-3-(DIMETHYLAMINO)-D-XYLO-HEXOPYRANOSIDE], the MIC result in test [1] (setting [8]), in test [2] (setting [5]), in test [3] (setting [6]) and in test [4] (setting [7]) was “=0.05” throughout.
As to `CC[C@H]1OC(=O)[C@H](C)C(=O)[C@H](C)[C@@H](OC2O[C@H](C)C[C@H](N(C)C)[C@H]2O)[C@@](C)(OC)C[C@@H](C)C(=O)[C@H](C)[C@H]2N(CCCCn3cnc4ncccc43)C(=O)O[C@]12CC` (stereo partly drawn) [Example 22, (3aS,4R,7R,9R,10R,11S,13R,15R,15aR)-3a,4-diethyl-1-[4-(1H-imidazo[4,5-b]pyridin-1-yl)butyl]-11-methoxy-7,9,11,13,15-pentamethyl-2,6,8,14-tetraoxotetradecahydro-2H-oxacyclotetradecino[4,3-d][1,3]oxazol-10-yl-3,4,6-trideoxy-3-(dimethylamino)-D-xylo-hexopyranoside], the MIC result in test [1] (setting [8]), in test [2] (setting [5]), in test [3] (setting [6]) and in test [4] (setting [7]) was “=0.05” each time.
With `CC[C@H]1OC(=O)[C@H](C)C(=O)[C@H](C)[C@@H](OC2O[C@H](C)C[C@H](N(C)C)[C@H]2O)[C@@](C)(OC)C[C@@H](C)C(=O)[C@H](C)[C@H]2N(CCN(C)Cc3cccnc3)C(=O)O[C@]12CC` (stereo partly shown) [Example 23], the MIC result in test [1] (setting [8]), in test [2] (setting [5]), in test [3] (setting [6]) and in test [4] (setting [7]) was “=0.05” each time.
`CC[C@H]1OC(=O)[C@H](C)C(=O)[C@H](C)[C@@H](OC2O[C@H](C)C[C@H](N(C)C)[C@H]2O)[C@@](C)(OC)C[C@@H](C)C(=O)[C@H](C)[C@H]2N(CCCCn3cnc(-c4cncnc4)c3)C(=O)O[C@]12CC` (stereo partly drawn) [Example 25, (3aS,4R,7R,9R,10R,11S,13R,15R,15aR)-3a,4-diethyl-11-methoxy-7,9,11,13,15-pentamethyl-2,6,8,14-tetraoxo-1-[4-(4-pyrimidin-5-yl-1H-imidazol-1-yl)butyl]tetradecahydro-2H-oxacyclotetradecino[4,3-d][1,3]oxazol-10-yl-3,4,6-trideoxy-3-(dimethylamino)-D-xylo-hexopyranoside]: the MIC result in test [1] (setting [8]), in test [2] (setting [5]), in test [3] (setting [6]) and in test [4] (setting [7]) was “=0.05” in each case.
Take `CC[C@H]1OC(=O)[C@@](C)(F)C(=O)[C@H](C)[C@@H](OC2O[C@H](C)C[C@H](N(C)C)[C@H]2O)[C@@](C)(OC)C[C@@H](C)C(=O)[C@H](C)[C@H]2N(CCCCn3cnc4ncccc43)C(=O)O[C@]12CC` (stereo partly drawn) [Example 27, (3aS,4R,7S,9R,10R,11S,13R,15R,15aR)-3a,4-diethyl-7-fluoro-1-[4-(1H-imidazo[4,5-b]pyridin-1-yl)butyl]-11-methoxy-7,9,11,13,15-pentamethyl-2,6,8,14-tetraoxotetradecahydro-2H-oxacyclotetradecino[4,3-d][1,3]oxazol-10-yl-3,4,6-trideoxy-3-(dimethylamino)-D-xylo-hexopyranoside]: the MIC result in test [1] (setting [8]), in test [2] (setting [5]) and in test [4] (setting [7]) was “=0.025” throughout.
In the case of `CC[C@H]1OC(=O)[C@H](C)C(=O)[C@H](C)[C@@H](OC2O[C@H](C)C[C@H](N(C)C)[C@H]2O)[C@@](C)(OC)C[C@@H](C)C(=O)[C@H](C)[C@H]2N(CCCCn3cnc(-c4ccncc4)c3)C(=O)O[C@]12CC` (stereo partly drawn) [Example 28, (3aS,4R,7R,9R,10R,11S,13R,15R,15aR)-3a,4-DIETHYL-11-METHOXY-7,9,11,13,15-PENTAMETHYL-2,6,8,14-TETRAOXO-1-[4-(4-PYRIDIN-4-YL-1H-IMIDAZOL-1-YL)BUTYL]TETRADECAHYDRO-1H-OXACYCLOTETRADECINO[4,3-D][1,3]OXAZOL-10-YL-3,4,6-TRIDEOXY-3-(DIMETHYLAMINO)-D-XYLO-HEXOPYRANOSIDE], the MIC result in test [1] (setting [8]), in test [2] (setting [5]), in test [3] (setting [6]) and in test [4] (setting [7]) was “=0.05” throughout.
As for `CC[C@H]1OC(=O)[C@H](C)C(=O)[C@H](C)[C@@H](OC2O[C@H](C)C[C@H](N(C)C)[C@H]2O)[C@@](C)(OC)C[C@@H](C)C(=O)[C@H](C)[C@H]2N(CCCCn3cnc(-c4ccc(C)nc4)c3)C(=O)O[C@]12CC` (stereo partly drawn) [Example 29, (3aS,4R,7R,9R,10R,11S,13R,15R,15aR)-3a,4-diethyl-11-methoxy-7,9,11,13,15-pentamethyl-1-{4-[4-(6-methylpyridin-3-yl)-1H-imidazol-1-yl]butyl}-2,6,8,14-tetraoxotetradecahydro-2H-oxacyclotetradecino[4,3-d][1,3]oxazol-10-yl-3,4,6-trideoxy-3-(dimethylamino)-D-xylo-hexopyranoside], the MIC result in test [1] (setting [8]), in test [2] (setting [5]), in test [3] (setting [6]) and in test [4] (setting [7]) was “=0.05” in each case.
